Laboratory results from article PMC12489660, “Multitargeted Caffeic Acid Derivatives Inhibit Cardiac RyR2- and NaV1.5- Channels but Stimulate SERCA2a Pump Activity” (ACS Omega, 2025).
Where “and” joins values, the source holds several entries; their conditions need not be identical. Identical values can stand only once.

How the values were obtained:
SERCA2a = molecular target: T1, SERCA2a (Mus musculus, UniProt O55143); experiment: NADH-coupled ATPase assay on microsomal membrane vesicles from mouse heart ventricles (mouse SER); type: biochemical; details: for effect on SERCA2a ATPase activity (in words) / ATPase activity of SERCA2a in mouse SER: 10 μM; for effect on SERCA2a ATPase activity (in words): mouse SER; for ATPase activity of SERCA2a in mouse SER: percentage from the control sample (100%), mean ± SEM; for EC50: kinetic rate of NADH–NAD+ conversion, Figure S10: 200 µM free Ca2+
T1 construct: from tissue; host or cells: adult mouse heart ventricles, microsomal membrane vesicles
Protocol: To this end, we tracked the rate of nicotinamide adenine dinucleotide (NADH) oxidation linked to ATP hydrolysis by observing changes in NADH fluorescence over time. This was done after addition of ATP to solutions containing microsomal membranes enriched with SER vesicles isolated from adult mouse heart ventricles (mouse SER). The NADH fluorescence decrease was recorded on a FlexStation 3 Multimode Microplate Reader. […] We detected the highest increase in ATPase activity (up to 118%), when the vesicles were treated with borate complex 11–13 (Table ). We tested compounds 11–13 in the NADH assay buffer to see whether these compounds could contribute to the rate of NADH fluorescence reduction (Figures S7–S9). No significant deviations were found in the rate of NADH consumption compared to the control sample (0.1 v/v% DMSO).
Isolation of Microsomal Membrane Vesicles from mouse hearts was done according to procedure described earlier. All animal procedures were performed in accordance with national and institutional regulations.
Mouse ventricular microsomes (4–5 μg of total protein) were diluted in 100 μL of the assay buffer used for measurement of SERCA activity (described below) and incubated at room temperature for 10 min prior to the experiments. The measurements of SERCA2 activity were made at 25 °C by using a NADH -coupled ATPase assay as described in Radnai et al. with slight modifications. Briefly, the assay buffer contained 60 mM MOPS, 120 mM KCl, 6 mM MgCl2, 1 mM EGTA, 5 mM NaN3, 0.5 mM phosphoenolpyruvate and 0.67 mM CaCl2, pH 7.0. Before the reaction was started by the injection of 10 μL ATP (resulting in 2 mM final concentration in the well), 5 units/mL of both lactate dehydrogenase and pyruvate kinase, 0.5 mM NADH, and 1 μM Ca^2+ ionophore A-23187 (Sigma, C-7522) were added to the diluted sample with or without the tested compound (volume −150 μL). […] The NADH fluorescence decrease was recorded each 2 s for 5 min course on a FlexStation 3 Multi-Mode Microplate Reader in 96-well glass bottom plates (MatTek Corporation; Cat. No. PBK96G-1.5-5-F). Fluorescence was evoked by 380 nm excitation wavelength and collected in a bottom-read mode at 425 nm, cutoff–470 nm, 4 flashes per read. ATP was injected at 60 s, speed–125 μL/s, pipet height–140 μL. The data were analyzed with computer software GraphPad Prism version 8.3.1 (GraphPad Software, Inc.). The difference in signal decrease with and without microsomes was taken as an indicator for the additional ATPase activity performed by SERCA2. The obtained values for maximal SERCA2 activity were normalized for total protein concentration. Maximal SERCA2 activity values are reported as percentages of control (0.1% DMSO) values. Microsomal samples that were kept on ice until usage and set to 100%.

human NaV1.5 = human NaV1.5 (Homo sapiens, UniProt Q14524); experiment: FLIPR membrane potential assay on CHO NaV1.5 Duo cells (veratridine-induced); type: cell-based; details: for NaV1.5 activity in CHO cells: 10 μM, percentage from the control sample (100%), mean ± SEM; for effect on NaV1.5 activity (in words): concentration range 0.1 to 100 μM
wild type mouse RyR2 = molecular target: T2, wild type mouse RyR2 (Mus musculus, UniProt E9Q401); experiment: Time-lapse [Ca2+]ER assay in HEK-293 RyR2 R-CEPIA1er cells (RyR2 activity assay); type: cell-based; details: 25 μM; for effect on RyR2 activity / [Ca2+]ER (in words): vs control 0.1 v/v% DMSO; for RyR2 activity: percentage from the control sample (100%), mean ± SEM;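 as to all read-outs here: ER Ca2+ read as R-CEPIA1er fluorescence ratio F/F0 (F0 mean of initial 90 s, F mean of final 100 s), compared with vehicle-treated control wells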
T2 construct: expressed in transfected cells; host or cells: HEK-293 cells stably expressing WT RyR2 and R-CEPIA1er (gift of Dr. Takashi Murayama), induced with doxycycline

SERCA2 = SERCA2 (Mus musculus, UniProt O55143); experiment: Caffeine induced calcium release assay on live HL-1 cardiomyocytes; type: cell-based; details: for EC50: 2 h preincubation, 10 mM caffeine, read-out: activation of SERCA2 in HL-1, EC50 (converted); for activation of SERCA2 in HL-1: 10 μM, percentage from the control sample (100%), mean ± SEM;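 as to all read-outs here: Read-out: caffeine-evoked peak minus basal fluorescence (ΔF Caff) of cytoplasmic FLIPR Calcium 6 dye, recorded for 1 min, compared with Tyrode's solution plus 0.1 v/v% DMSO as control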
[1] = PermeaPad membrane permeability; type: in vitro ADME; details: not told, room temperature, class low/medium in parentheses, read-out: P e (permeability rate)
Source text: We determined permeability rates (P e ), which are a measure of how fast a compound can cross a membrane, using cell-free transport models (PermeaPad, innoME GmbH) The CA derivatives have medium to low permeability rates in the range 1.0–24.0 nm/s (Table ). Similar to S36, despite poor permeability, compounds 2–4, 8, and 9 acted on live RyR2-HEK-293 R-CEPIA1er cells inhibiting RyR2. […] Since PermeaPad is an artificial model that primarily reflects passive diffusion, it is likely that additional mechanisms contribute to the crossing of cell membranes by these compounds.
Membrane permeability was assessed using PermeaPad Plate according to the manufacturing procedure (innoME GmbH, Espelkamp, Germany). Briefly, 200 μL (V A) water was added into acceptor plate. 200 μL (V D) of 100–500 μM test compound in water was added directly to the well membranes of the donor plate. The donor plate contains a biomimetic membrane for simulating passive mass transfer through different barriers in the body. Then the donor plate was placed into the acceptor plate wells and incubated at room temperature for 24 h in dark. To determine peak absorbance of test compounds, absorbance spectra of acceptor solutions and initial solutions for each test compound were read out. The Permeability Rate (P e) was calculated using the formula:
P e = C × −ln (1 – ODA/ODB) cm/s, where OD A is the absorbance of acceptor solution, OD B is the absorbance of the standard solution; if the compound is able to permeabilize the membrane and fully reach equilibrium, 250 μM will be the final concentration of solution in the donor and acceptor wells. The coefficient C was calculated using the formula: C=VD×VA/(VD+VA)×Area×time where V A–acceptor volume (cm^3), V D–donor volume (cm^3), membrane area 0.24 cm^2, time is 86,400 s.

T1 sequence (O55143 1-998 isoform O55143-2): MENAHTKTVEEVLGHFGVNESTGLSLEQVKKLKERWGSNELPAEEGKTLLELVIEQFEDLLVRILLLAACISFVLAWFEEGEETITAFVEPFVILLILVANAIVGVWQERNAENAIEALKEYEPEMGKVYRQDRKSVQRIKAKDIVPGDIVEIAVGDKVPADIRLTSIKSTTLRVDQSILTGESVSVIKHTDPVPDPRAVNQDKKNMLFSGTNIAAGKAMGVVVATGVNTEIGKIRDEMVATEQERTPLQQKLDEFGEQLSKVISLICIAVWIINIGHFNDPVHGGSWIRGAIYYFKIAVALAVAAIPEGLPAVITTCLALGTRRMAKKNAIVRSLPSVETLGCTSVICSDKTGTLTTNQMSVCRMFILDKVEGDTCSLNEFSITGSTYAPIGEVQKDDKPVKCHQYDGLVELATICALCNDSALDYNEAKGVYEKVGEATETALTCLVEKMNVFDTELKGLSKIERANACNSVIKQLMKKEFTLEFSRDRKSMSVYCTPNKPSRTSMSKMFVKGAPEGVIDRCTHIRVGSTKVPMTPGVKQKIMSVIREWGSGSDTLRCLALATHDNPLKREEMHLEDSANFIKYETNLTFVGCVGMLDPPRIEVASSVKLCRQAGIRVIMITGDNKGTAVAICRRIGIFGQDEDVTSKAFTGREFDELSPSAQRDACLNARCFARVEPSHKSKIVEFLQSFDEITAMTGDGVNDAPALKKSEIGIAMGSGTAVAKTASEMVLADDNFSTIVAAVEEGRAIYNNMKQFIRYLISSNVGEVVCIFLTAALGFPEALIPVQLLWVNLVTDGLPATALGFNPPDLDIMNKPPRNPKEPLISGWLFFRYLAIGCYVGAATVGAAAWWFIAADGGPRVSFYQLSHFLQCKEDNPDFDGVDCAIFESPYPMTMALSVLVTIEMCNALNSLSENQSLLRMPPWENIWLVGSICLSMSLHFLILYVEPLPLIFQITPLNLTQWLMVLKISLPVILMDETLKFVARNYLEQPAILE
Sequence of human NaV1.5 (Q14524 1-460 limits assumed): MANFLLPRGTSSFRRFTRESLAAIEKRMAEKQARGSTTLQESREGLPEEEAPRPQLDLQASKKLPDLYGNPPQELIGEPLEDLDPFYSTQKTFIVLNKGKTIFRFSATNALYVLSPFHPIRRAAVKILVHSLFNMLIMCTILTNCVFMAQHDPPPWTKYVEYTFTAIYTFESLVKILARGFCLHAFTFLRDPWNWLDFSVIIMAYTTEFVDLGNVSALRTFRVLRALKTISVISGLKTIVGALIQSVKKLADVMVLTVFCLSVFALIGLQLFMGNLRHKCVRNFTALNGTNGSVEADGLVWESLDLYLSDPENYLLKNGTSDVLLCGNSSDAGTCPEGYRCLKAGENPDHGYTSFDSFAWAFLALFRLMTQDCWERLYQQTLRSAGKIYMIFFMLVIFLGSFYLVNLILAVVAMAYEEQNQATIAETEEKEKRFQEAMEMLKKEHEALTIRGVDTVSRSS
Sequence of human NaV1.5 (Q14524 661-1004 limits assumed): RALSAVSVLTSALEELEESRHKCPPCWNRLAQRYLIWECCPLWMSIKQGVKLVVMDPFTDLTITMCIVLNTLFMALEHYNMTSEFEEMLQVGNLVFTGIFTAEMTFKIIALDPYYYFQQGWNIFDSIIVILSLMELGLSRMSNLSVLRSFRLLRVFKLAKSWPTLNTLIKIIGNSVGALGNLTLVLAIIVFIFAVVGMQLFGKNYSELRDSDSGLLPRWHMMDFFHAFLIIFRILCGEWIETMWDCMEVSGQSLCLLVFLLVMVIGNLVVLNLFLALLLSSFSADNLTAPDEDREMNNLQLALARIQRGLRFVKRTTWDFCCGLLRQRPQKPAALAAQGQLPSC
Sequence of human NaV1.5 (Q14524 1142-2016 limits assumed): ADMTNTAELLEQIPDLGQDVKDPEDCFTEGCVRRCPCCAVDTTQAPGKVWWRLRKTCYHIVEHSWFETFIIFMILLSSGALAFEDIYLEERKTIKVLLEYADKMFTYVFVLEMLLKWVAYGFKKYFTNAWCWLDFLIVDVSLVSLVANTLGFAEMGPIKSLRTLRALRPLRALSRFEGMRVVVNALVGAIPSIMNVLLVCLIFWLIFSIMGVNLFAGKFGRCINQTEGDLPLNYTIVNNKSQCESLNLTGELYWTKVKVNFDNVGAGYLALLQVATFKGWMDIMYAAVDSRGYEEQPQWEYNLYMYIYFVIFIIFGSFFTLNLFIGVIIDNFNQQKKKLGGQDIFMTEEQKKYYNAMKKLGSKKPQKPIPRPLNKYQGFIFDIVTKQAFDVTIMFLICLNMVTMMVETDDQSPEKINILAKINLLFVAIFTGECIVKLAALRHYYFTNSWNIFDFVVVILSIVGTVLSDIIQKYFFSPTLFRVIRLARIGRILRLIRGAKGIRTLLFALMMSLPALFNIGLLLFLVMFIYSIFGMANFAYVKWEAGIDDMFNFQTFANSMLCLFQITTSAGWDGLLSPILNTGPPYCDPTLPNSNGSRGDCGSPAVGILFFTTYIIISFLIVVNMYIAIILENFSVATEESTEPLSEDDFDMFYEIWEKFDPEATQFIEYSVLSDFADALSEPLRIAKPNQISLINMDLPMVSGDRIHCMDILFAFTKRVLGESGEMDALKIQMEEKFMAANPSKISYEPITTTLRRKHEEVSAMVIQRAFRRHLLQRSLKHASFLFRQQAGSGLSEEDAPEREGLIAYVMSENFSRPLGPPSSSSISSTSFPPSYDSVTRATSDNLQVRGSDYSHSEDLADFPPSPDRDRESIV
Sequence of SERCA2 (O55143 1-994 limits assumed): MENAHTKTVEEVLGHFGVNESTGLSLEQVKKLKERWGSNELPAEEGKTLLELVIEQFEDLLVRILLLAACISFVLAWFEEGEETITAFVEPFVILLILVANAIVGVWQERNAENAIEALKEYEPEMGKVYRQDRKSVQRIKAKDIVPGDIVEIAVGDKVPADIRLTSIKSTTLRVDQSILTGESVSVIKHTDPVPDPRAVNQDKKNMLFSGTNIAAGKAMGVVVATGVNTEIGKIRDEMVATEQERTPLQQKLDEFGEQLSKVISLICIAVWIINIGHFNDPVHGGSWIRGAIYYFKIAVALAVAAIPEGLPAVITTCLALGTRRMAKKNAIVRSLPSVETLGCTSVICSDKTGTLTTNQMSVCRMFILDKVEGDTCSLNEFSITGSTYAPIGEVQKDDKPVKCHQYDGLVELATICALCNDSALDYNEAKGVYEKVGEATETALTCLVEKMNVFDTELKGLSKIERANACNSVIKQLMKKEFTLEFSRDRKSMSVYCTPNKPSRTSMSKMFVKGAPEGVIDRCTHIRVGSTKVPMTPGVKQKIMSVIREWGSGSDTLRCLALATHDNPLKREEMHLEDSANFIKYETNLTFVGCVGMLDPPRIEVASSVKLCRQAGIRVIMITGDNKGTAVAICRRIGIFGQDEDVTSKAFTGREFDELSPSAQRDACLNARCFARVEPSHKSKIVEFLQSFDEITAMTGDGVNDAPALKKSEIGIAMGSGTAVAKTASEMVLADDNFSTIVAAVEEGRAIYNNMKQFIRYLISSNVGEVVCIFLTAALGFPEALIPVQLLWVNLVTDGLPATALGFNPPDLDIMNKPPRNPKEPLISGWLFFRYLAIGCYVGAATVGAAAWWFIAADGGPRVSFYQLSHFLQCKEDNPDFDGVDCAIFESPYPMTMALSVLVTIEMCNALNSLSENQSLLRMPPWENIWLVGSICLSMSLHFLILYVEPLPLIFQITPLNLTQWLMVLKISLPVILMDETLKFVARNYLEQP

Row | Structure (SMILES) | effect on SERCA2a ATPase activity (in words) (SERCA2a) | ATPase activity of SERCA2a in mouse SER (SERCA2a) [%] | effect on RyR2 activity / [Ca2+]ER (in words) (wild type mouse RyR2) | RyR2 activity (wild type mouse RyR2) [%] | EC50 (SERCA2; HL-1 cells) | Papp at 24 h [1] [×10⁻⁶ cm/s] | activation of SERCA2 in HL-1 (SERCA2) [%] | EC50 (SERCA2a) | effect in caffeine-induced Ca2+ release assay relative to CDN1163 (SERCA2; HL-1 cardiomyocytes) [fold] | increase in the signaling response to caffeine stimulation compared to the control sample (SERCA2; HL-1 cells, maximal effect of the dose-response) | NaV1.5 activity in CHO cells (human NaV1.5) [%] | effect on NaV1.5 activity (in words) (human NaV1.5) | effect on NaV1.5 (in words) (human NaV1.5; 100 μM) | effect on NaV1.5 (in words) (human NaV1.5; 1 μM) | effect on NaV1.5 (in words) (human NaV1.5; 10–100 μM) | concentration of maximal inhibition (human NaV1.5; positive control) [µM]
1 | O=C(O)C=Cc1ccc(O)c(O)c1 [CA, 3-(3,4-dihydroxyphenyl)-2-propenoic acid, reference compound] | accelerated consumption of NADH | 108.5 ± 2.5 | did not affect the RyR2 activity | 100.9 ± 0.8 | – | – | – | – | – | – | 91.8 ± 2.4 | no effect on NaV1.5 activity | – | – | – | –
2 | Cc1ccc2cccc(NC(=O)c3ccc(OC(C)C)cc3)c2n1 [CDN1163, reference compound] | – | – | – | – | 21 µM and 21.2 µM | – | – | – | – | – | – | blocked NaV1.5 | comparable to the maximal effect of tetracaine | – | – | –
3 | COc1ccc(SCCCNC(=O)/C=C/c2ccc(O)c(O)c2)cc1 [Compound 2, (E)-3-(3,4-Dihydroxyphenyl)-N-(3-((4-methoxyphenyl)thio)propyl)acrylamide] | significant activation of SERCA2a ATPase | 109.2 ± 3.6 | RyR2 activators | 96.5 ± 0.4 | 11 µM | < 1 | 161.5 ± 9.5 | – | – | – | 89.7 ± 1.1 | – | – | – | – | –
4 | COc1ccc2c(c1)CN(C/C=C/C(=O)NNC(=O)/C=C/c1ccc(O)c(O)c1)CCS2 [Compound 3, (E)-N′-((E)-3-(3,4-Dihydroxyphenyl)acryloyl)-4-(7-methoxy-2,3-dihydrobenzo[1,4-f]thiazepin-4(5H)-yl)but-2-enehydrazide] | did not evoke a significant increase in ATPase activity | 100.6 ± 2.5 | significantly increased [Ca^2+]ER | 101.7 ± 0.3 | > 3 µM | 3.4 | 135.4 ± 3.8 | – | – | – | 94.8 ± 2.1 | – | – | – | – | –
5 | COc1ccc2c(c1)CN(CCCCNC(=O)C(=O)NCCCCCCNC(=O)/C=C/c1ccc(O)c(O)c1)CCS2 [Compound 4] | significant activation of SERCA2a ATPase | 110.8 ± 4.5 | significantly increased [Ca^2+]ER | 102.2 ± 0.6 | 1.4 µM | 2.7 | 140.3 ± 6.4 | – | – | – | 108.0 ± 1.6 | – | small but significant activating effect | – | – | –
6 | CCCCNc1ccc(C(=O)OCCN(C)C)cc1 [tetracaine, reference compound] | – | – | – | – | – | – | – | – | – | – | – | – | – | – | – | 100

Further lines, with some results ahead:

Row | effect on SERCA2a ATPase activity (in words) (SERCA2a) | ATPase activity of SERCA2a in mouse SER (SERCA2a) [%] | effect on RyR2 activity / [Ca2+]ER (in words) (wild type mouse RyR2) | RyR2 activity (wild type mouse RyR2) [%] | EC50 (SERCA2; HL-1 cells) | Papp at 24 h [1] [×10⁻⁶ cm/s] | activation of SERCA2 in HL-1 (SERCA2) [%] | EC50 (SERCA2a) | effect in caffeine-induced Ca2+ release assay relative to CDN1163 (SERCA2; HL-1 cardiomyocytes) [fold] | increase in the signaling response to caffeine stimulation compared to the control sample (SERCA2; HL-1 cells, maximal effect of the dose-response) | Structure (SMILES) | NaV1.5 activity in CHO cells (human NaV1.5) [%] | effect on NaV1.5 activity (in words) (human NaV1.5) | effect on NaV1.5 (in words) (human NaV1.5; 100 μM) | effect on NaV1.5 (in words) (human NaV1.5; 1 μM) | effect on NaV1.5 (in words) (human NaV1.5; 10–100 μM) | concentration of maximal inhibition (human NaV1.5; positive control) [µM]
7 | – | 112.3 ± 3.5 | did not affect the RyR2 activity | 99.4 ± 0.4 | 3.1 µM | 0.9 | 235.4 ± 8.5 | – | – | – | COc1ccc2c(c1)CN(CCCCCCNC(=O)/C=C/c1ccc(O)c(O)c1)CCS2 [Compound 6] | 88.8 ± 0.9 | – | – | – | – | –
8 | – | 109.8 ± 2.9 | – | 100.1 ± 1.7 | 1.9 µM | 0.9 | 175.3 ± 7.2 | – | – | – | COc1ccc2c(c1)CN(CCCCCCCCNC(=O)/C=C/c1ccc(O)c(O)c1)CCS2 [Compound 7] | 87.4 ± 1.1 | bell-shaped behavior | – | activating effect | inhibitory effect | –
9 | – | 110.5 ± 3.5 | RyR2 activators | 95.0 ± 1.2 | 7.6 µM | 1.1 | 158.1 ± 2.4 | – | – | – | COc1ccc2c(c1)CN(CCCCCCNC(=O)/C=C/c1ccc(O)c(O)c1)CCO2 [Compound 8] | 96.6 ± 3.6 | – | – | – | – | –
10 | – | 112.3 ± 4.6 | significantly increased [Ca^2+]ER | 102.1 ± 0.4 | 47.6 µM | 0.2 | 126.4 ± 13.0 | – | – | – | COc1ccc2c(c1)CN(CCCCCCCCNC/C=C/c1ccc(O)c(O)c1)CCO2 [Compound 10] | 103.0 ± 1.4 | no effect on NaV1.5 | – | – | – | –
11 | – | 115.7 ± 4.0 | did not affect the RyR2 activity | 100.8 ± 0.7 | 13.6 µM | 2.6 | 267.3 ± 11.7 | 0.03 µM and 0.0296 µM | 2.5 | up to 450% | COc1ccc2c(c1)CN(CCCC[NH+]([BH2-]C#N)C/C=C/c1ccc(O)c(O)c1)CCS2 (stereo not shown) [Compound 11] | 83.8 ± 1.7 | – | – | – | – | –
12 | – | 118.2 ± 2.5 | significantly increased [Ca^2+]ER | 103.9 ± 0.8 | 1.1 µM | 0.4 | 277.8 ± 12.7 | 0.0023 µM | – | – | COc1ccc2c(c1)CN(CCCCCC[NH+]([BH2-]C#N)C/C=C/c1ccc(O)c(O)c1)CCS2 (stereo not shown) [Compound 12] | 86.2 ± 2.6 | – | – | – | – | –
13 | – | – | increase in R-CEPIA1er fluorescence | – | – | – | – | – | – | – | O=C1CN(/N=C/c2ccc(-c3ccc([N+](=O)[O-])cc3)o2)C(O)=N1 [dantrolene, reference compound] | – | – | – | – | – | –
